This test relates to human colon cancer cell HT29. The experiment in a line: Anticancer therapy in human cancer cell-transplanted nude mouse model (size of tumor lump). Type of test: in vivo, nude mouse BALB/cAnNCrj-nu/nu. Conditions: Example 5; intraperitoneally three times every 4 days; etoposide 33 mg/kg, lactacystin 40 mg/kg; in combined use lactacystin 5 hours before etoposide; FIG. 11. The text has this: A human colon cancer cell HT29 was transplanted subcutaneously to a nude mouse to examine a therapeutic effect of combined use of lactacystin, the proteasome inhibiting agent, with etoposide, the anticancer drug targeting topoisomerase II.
As an experimental animal, the nude mouse BALB/cAnNCrj-nu/nu of 8-week old female (Charles River Laboratories product) was used. In order to form a tumor lump in the nude mouse, 1×10^7 HT29 cells was subcutaneously transplanted. After 8 to 10 days of transplanting, the tumor lump of HT29 cells grew to […] and at this point, the therapy was started. […]
The therapy was conducted by dividing the HT29 tumor-transplanted mice into 4 groups to assign 4 animals to 1 group as follows by administering intraperitoneally three times every 4 days: (1) control group untreated with saline, (2) etoposide 33 mg/kg, (3) lactacystin 40 mg/kg, (4) lactacystin 40 mg/kg and etoposide 33 mg/kg. […] Since start of the therapy, a size of the tumor lump was measured to measure effect of the therapy by administration of drugs once every 4 days. […]
The effect of therapy by simultaneous administration of the proteasome inhibiting agent, lactacystin, and the topoisomerase II-targeting anticancer, doxorubicin was examined. […] After start of treatment, once every 4 to 5 days, the size of the tumor lump was measured to measure the effect of treatment by drug administration.

For the compound `CC(=O)N[C@@H](CSC(=O)[C@]1([C@@H](O)C(C)C)NC(=O)[C@H](C)[C@@H]1O)C(=O)O` [lactacystin], the “suppression of tumor proliferation (size of the tumor lump)” value was “less suppression of tumor proliferation”.

The record behind these values is patent EP1153612A1, “ANTICANCER AGENT POTENTIATORS” (Tsuruo, Takashi, priority 1999, dated 2000).
